In the supplement of paper PMC10307832:

Compound: C[C@H]([C@@H](C(=O)N)NC(=O)[C@@H]1CSSC[C@@H](C(=O)N[C@H](C(=O)N[C@@H](C(=O)N[C@H](C(=O)N1)CCCCN)CC2=CNC3=CC=CC=C32)CC4=CC=C(C=C4)O)NC(=O)[C@@H](CC5=CC=CC=C5)N)O [CAP-232]
Test: relative viability (nuclei count vs DMSO), 5 days (fraction); higher = more cells survive
In short: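 Five library-drug doses, separated by factors of √10, were pinned into 1536-well plates holding lung cancer cell lines after an overnight stay at 37 °C. Cells were fixed, permeabilised and Hoechst-stained in one step after 5 days without medium change, then imaged at 4×. Viability compares treated-well with vehicle-well nuclei, counted in MetaXpress, as a median across plates. Passing plates had control CV below 25% and at least one doubling.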

| Cell Line | relative viability (0.4 µM) | relative viability (1.265 µM) | relative viability (4 µM) | relative viability (12.65 µM) |
| --- | --- | --- | --- | --- |
| 201T | 1.07 | 0.952 | 0.996 | 1.02 |
| A549 | 0.999 | 0.895 | 1.14 | 0.597 |
| A-427 | 1.01 | 0.953 | 0.931 | 0.86 |
| ABC-1 | 0.968 | 0.789 | 0.957 | 0.603 |
| BEN | 1.03 | 1.05 | 0.989 | 0.922 |
| CAL-12T | 0.917 | 0.992 | 0.995 | 0.97 |
| COR-L23 | 1.15 | 1.05 | 1.09 | 0.745 |
| COR-L 105 | 1.05 | 0.816 | 0.992 | 0.573 |
| ChaGo-K-1 | 1.1 | 0.99 | 1.05 | 1.04 |
| EKVX | 1.07 | 0.968 | 1.04 | 0.885 |
| EMC-BAC-2 | 1.19 | 0.941 | 0.995 | 0.866 |
| EPLC-272H | 0.998 | 0.909 | 1.05 | 0.915 |
| H3255 | 0.976 | 0.946 | 1.01 | 0.769 |
| HARA | 1.12 | 0.984 | 1.03 | 0.902 |
| HCC-15 | 1.15 | 1.01 | 1.14 | 0.874 |
| HCC-44 | 1.11 | 0.988 | 0.963 | 0.978 |
| HCC-78 | 1.16 | 0.947 | 1.14 | 0.992 |
| HCC-366 | 0.988 | 0.964 | 1.04 | 1.09 |
| HCC-827 | 1.07 | 1.05 | 1.06 | 0.997 |
| HOP-62 | 0.998 | 0.957 | 1.1 | 0.992 |
| IA-LM | 1.02 | 0.911 | 1.07 | 0.508 |
| LC-2-ad | 1.17 | 0.95 | 1.07 | 1.03 |
| LCLC-97TM1 | 1.02 | 0.943 | 0.986 | 0.965 |
| LCLC-103H | 1.13 | 0.984 | 1.08 | 0.967 |
| LK-2 | 1.08 | 0.957 | 1.1 | 0.976 |
| LOU-NH91 | 1.01 | 0.908 | 0.934 | 0.686 |

| Cell Line | relative viability (0.4 µM) | relative viability (1.265 µM) | relative viability (4 µM) | relative viability (12.65 µM) |
| --- | --- | --- | --- | --- |
| LU99A | 0.969 | 0.919 | 0.986 | 0.984 |
| LXF-289 | 1.04 | 1.02 | 1.06 | 0.993 |
| NCI-H23 | 1.09 | 0.853 | 0.949 | 0.931 |
| NCI-H322M | 1.13 | 0.86 | 0.896 | 1.16 |
| NCI-H358 | 0.979 | 0.918 | 0.927 | 0.81 |
| NCI-H441 | 1.07 | 0.969 | 1.07 | 0.921 |
| NCI-H460 | 1.04 | 1.01 | 1.09 | 0.777 |
| NCI-H520 | 1.09 | 1.01 | 1.07 | 0.928 |
| NCI-H522 | 0.967 | 0.982 | 1.01 | 0.916 |
| NCI-H596 | 1.12 | 0.934 | 0.912 | 0.976 |
| NCI-H647 | 1.11 | 0.808 | 1.17 | 0.768 |
| NCI-H650 | 1.03 | 0.979 | 1.02 | 0.91 |
| NCI-H661 | 0.948 | 1.04 | 1.04 | 0.984 |
| NCI-H727 | 0.746 | 0.938 | 0.955 | 0.913 |
| NCI-H838 | 1.03 | 0.943 | 1.05 | 0.757 |
| NCI-H1355 | 1.09 | 0.987 | 1.13 | 0.95 |
| NCI-H1395 | 1.05 | 0.846 | 0.995 | 0.925 |
| NCI-H1437 | 0.996 | 1.01 | 1.03 | 0.895 |
| NCI-H1563 | 0.987 | 0.927 | 0.95 | 0.657 |
| NCI-H1650 | 0.986 | 0.849 | 0.932 | 0.27 |
| NCI-H1651 | 1.04 | 0.954 | 1.01 | 0.773 |
| NCI-H1666 | 0.927 | 0.913 | 1.02 | 0.871 |
| NCI-H1703 | 0.854 | 0.917 | 0.961 | 0.764 |
| NCI-H1734 | 0.97 | 0.981 | 1.05 | 0.936 |
| NCI-H1755 | 1.04 | 0.964 | 1.1 | 0.918 |
| NCI-H1792 | 1.44 | 0.775 | 0.878 | 0.777 |

| Cell Line | relative viability (0.4 µM) | relative viability (1.265 µM) | relative viability (4 µM) | relative viability (12.65 µM) |
| --- | --- | --- | --- | --- |
| NCI-H1793 | 1.01 | 0.911 | 0.869 | 0.917 |
| NCI-H1915 | 1.09 | 0.948 | 1.08 | 1.07 |
| NCI-H1944 | 0.921 | 0.972 | 1.03 | 0.969 |
| NCI-H1975 | 1.11 | 0.86 | 1.02 | 0.72 |
| NCI-H1993 | 0.954 | 0.934 | 1.09 | 0.945 |
| NCI-H2009 | 1.06 | 0.998 | 1 | 0.932 |
| NCI-H2023 | 0.998 | 0.883 | 1.07 | 0.329 |
| NCI-H2085 | 1.03 | 1.03 | 0.997 | 0.945 |
| NCI-H2087 | 1.02 | 0.936 | 1.08 | 0.788 |
| NCI-H2126 | 1.05 | 0.985 | 1.1 | 0.991 |
| NCI-H2170 | 0.986 | 0.971 | 1.16 | 1.02 |
| NCI-H2228 | 1.23 | 0.976 | 1.05 | 0.829 |
| NCI-H2342 | 0.952 | 0.997 | 1.08 | 0.977 |
| NCI-H2347 | 1.08 | 1.04 | 1.04 | 0.948 |
| NCI-H2405 | 1.01 | 0.972 | 1.05 | 0.786 |
| NCI-H3122 | 1 | 1 | 0.984 | 0.957 |
| PC-3 [JPC-3] | 1.09 | 1.05 | 1.07 | 0.955 |
| PC-14 | 1.12 | 0.971 | 1.04 | 0.755 |
| RERF-LC-KJ | 1.07 | 1 | 0.99 | 0.935 |
| SK-LU-1 | 1.09 | 1.07 | 1.12 | 0.9 |
| SK-MES-1 | 1.02 | 1.06 | 1.01 | 0.904 |
| SW 900 | 0.962 | 0.881 | 0.953 | 0.845 |
| SW 1573 | 0.909 | 0.928 | 1.06 | 0.495 |
| UMC-11 | 0.917 | 0.914 | 1.08 | 0.95 |
